{"source": "patent US20260234208A1", "about": "“METHOD FOR PRODUCING A KERATIN POWDER FROM FEATHERS OF ANIMAL ORIGIN, COLLOIDAL SOLUTION AND KERATIN POWDER FOR TOPICAL APPLICATION CONTAINING KERATIN PARTICLES, AND USE OF THE COLLOIDAL SOLUTION AND THE KERATIN POWDER” (RIGI THERAPEUTICS AG, priority 2023, published 2026)", "assay": "Water release in climate chamber", "type": "physicochemical", "details": "room temperature, humidity 50%", "experimental": "When urea was added, up to a ratio of 5% keratin to 95% urea, the maximum was reached increasingly later, in the maximum case only after 15 days. In this case, the water absorption capacity was 197%. (FIG. 13). The water release was determined at room temperature and a humidity of 50%. […] For the mixtures of keratin and urea in the ratios 25:75 and 10:[…], a water content of 25% was still observed even after 4 days (FIG. 14)."}
{"smiles": "NC(N)=O", "note": "[urea]", "values": [{"measurement": "Time to complete water release", "value": 4, "unit": "days"}, {"measurement": "Water release within the first 24 hours", "value": "around 170%"}]}
